As usually defined, the IC50 is the concentration that gives 50% inhibition.

Results on 1 compound are retold here after publication PMC6567099 (Journal of Enzyme Inhibition and Medicinal Chemistry, 2019).

In one test the target is SMO (spermine oxidase) (Homo sapiens, UniProt Q9NWM0). Nature of the test: luminol/HRP chemiluminescence assay of H2O2 with purified recombinant enzyme. In kind it is biochemical.
The target in test [1] is APAO (N1-acetylpolyamine oxidase) (Homo sapiens, UniProt Q6QHF9). The test is described as above. In kind it is biochemical.
APAO (N1-acetylpolyamine oxidase), sequence (Q6QHF9 whole entry): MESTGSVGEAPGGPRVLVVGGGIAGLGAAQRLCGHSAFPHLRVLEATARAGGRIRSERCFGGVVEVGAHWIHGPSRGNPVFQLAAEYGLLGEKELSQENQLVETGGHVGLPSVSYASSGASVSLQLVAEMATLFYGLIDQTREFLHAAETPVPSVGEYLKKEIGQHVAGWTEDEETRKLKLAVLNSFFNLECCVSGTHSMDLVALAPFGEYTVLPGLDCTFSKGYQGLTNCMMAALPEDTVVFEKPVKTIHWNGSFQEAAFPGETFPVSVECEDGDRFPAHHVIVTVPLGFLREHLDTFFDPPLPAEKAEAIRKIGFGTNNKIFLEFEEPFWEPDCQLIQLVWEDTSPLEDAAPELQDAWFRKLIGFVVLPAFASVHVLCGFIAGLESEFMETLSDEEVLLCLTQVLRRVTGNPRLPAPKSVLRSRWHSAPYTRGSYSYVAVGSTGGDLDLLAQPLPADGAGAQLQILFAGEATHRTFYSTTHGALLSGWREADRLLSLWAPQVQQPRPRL

SMO (spermine oxidase), sequence (Q9NWM0 whole entry): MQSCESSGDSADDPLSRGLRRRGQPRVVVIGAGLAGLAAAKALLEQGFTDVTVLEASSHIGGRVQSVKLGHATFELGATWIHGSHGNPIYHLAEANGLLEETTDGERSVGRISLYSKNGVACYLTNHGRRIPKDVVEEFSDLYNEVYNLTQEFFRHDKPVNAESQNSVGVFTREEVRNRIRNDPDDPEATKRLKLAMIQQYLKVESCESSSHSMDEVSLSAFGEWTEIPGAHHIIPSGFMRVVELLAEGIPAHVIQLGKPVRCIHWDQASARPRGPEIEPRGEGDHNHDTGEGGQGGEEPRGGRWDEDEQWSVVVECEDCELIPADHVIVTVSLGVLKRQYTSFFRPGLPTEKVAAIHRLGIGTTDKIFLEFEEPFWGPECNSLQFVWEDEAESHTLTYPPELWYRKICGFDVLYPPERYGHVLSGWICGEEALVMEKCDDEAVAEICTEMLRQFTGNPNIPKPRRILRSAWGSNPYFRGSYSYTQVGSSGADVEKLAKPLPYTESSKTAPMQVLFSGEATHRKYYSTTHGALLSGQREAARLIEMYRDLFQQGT

Take `CN(C)CCCNCCCNC(=O)c1cccc2cccnc12` [SI-4650, N-(3-{[3-(dimethylamino)propyl]amino}propyl)-8-quinolinecarboxamide]: the half-maximal inhibitory concentration (IC50) on SMO (spermine oxidase) came to 381.8 ± 0.17 µM; in test [1] it was 35.4 ± 0.26 µM.
